Measurements from ChEMBL document CHEMBL5030562, “Synthesis and antiviral evaluation of cytisine derivatives against dengue virus types 1 and 2” (Bioorg Med Chem Lett, 2021).
Calls of active or inactive are those of the source. The calls are words filed in the database; no cut-off is given here.

Experiments:
dengue virus type 1 [1] = test: Antiviral activity against DENV1 infected in African green monkey Vero E6 cells assessed as inhibition of virus induced cytopathic effect measured after 96 hrs by immunofluorescent staining based inverted microscopic analysis; assay type: functional, organism-based; conditions: Vero C1008, 96 h
dengue virus type 2 [2] = test: Antiviral activity against Dengue virus 2 infected in African green monkey Vero E6 cells assessed as inhibition of viral replication at entry stage measured after 96 hrs by DAPI staining based fluorescence microscopic analysis; assay type: functional, organism-based; conditions: Vero C1008, 96 h
dengue virus type 2 [3] = test: Antiviral activity against DENV2 infected in African green monkey Vero E6 cells assessed as reduction in induced cytopathic effect at 10 uM after 96 hrs by immunofluorescent staining based inverted microscopic analysis; assay type: functional, organism-based
[4] = Selectivity index, ratio of CC50 for cytotoxicity in African green monkey Vero E6 cells to IC50 for Antiviral activity against DENV2 infected in African green monkey Vero E6 cells; assay type: toxicity, cell-based, Vero C1008; conditions: read-out: Ratio CC50/IC50
[5] = Cytotoxicity against African green monkey Vero E6 cells assessed as reduction in cell viability by MTT assay; assay type: cell-based, Vero C1008; conditions: chlorocebus sabaeus
dengue virus type 2 [6] = test: Antiviral activity against DENV2 infected in African green monkey Vero E6 cells assessed as inhibition of virus induced cytopathic effect at 10 uM measured after 96 hrs by immunofluorescent staining based inverted microscopic analysis relative to control; assay type: functional; conditions: Vero C1008
[7] = Selectivity index, ratio of CC50 for cytotoxicity in human A549 cells to IC50 for Antiviral activity against DENV2 infected in African green monkey Vero E6 cells; assay type: toxicity, cell-based
dengue virus type 1 [8] = test: Antiviral activity against DENV1 infected in African green monkey Vero E6 cell assessed as inhibition of virus induced cytopathic effect at 10 uM measured after 96 hrs by immunofluorescent staining based inverted microscopic analysis relative to control; assay type: functional; conditions: Vero C1008
dengue virus type 1 [9] = test: Antiviral activity against DENV1 infected in African green monkey Vero E6 cells assessed as reduction in induced cytopathic effect at 10 uM after 96 hrs by immunofluorescent staining based inverted microscopic analysis; assay type: functional, organism-based
dengue virus type 2 [10] = test: Antiviral activity against Dengue virus 2 infected in African green monkey Vero E6 cells assessed as inhibition of viral replication at attachment stage measured after 96 hrs by DAPI staining based fluorescence microscopic analysis; assay type: functional, organism-based; conditions: Vero C1008, 96 h
dengue virus type 2 [11] = test: Antiviral activity against DENV2 infected in human A549 cells assessed as inhibition of virus induced cytopathic effect measured after 96 hrs by immunofluorescent staining based inverted microscopic analysis; assay type: functional, organism-based; conditions: A549, 96 h
dengue virus type 2 [12] = test: Antiviral activity against Dengue virus 2 infected in African green monkey Vero E6 cells assessed as inhibition of viral replication at post entry stage measured after 96 hrs by DAPI staining based fluorescence microscopic analysis; assay type: functional, organism-based; conditions: Vero C1008, 96 h
A549 = test: Cytotoxicity against human A549 cells assessed as reduction in cell viability by MTT assay; assay type: functional
Human respirovirus 3 = test: Antiviral activity against Parainfluenza virus type 3; assay type: functional, organism-based
Hepatitis B virus = test: Antiviral activity against Hepatitis B virus; assay type: functional, organism-based
Influenza A virus = test: Antiviral activity against Influenza A virus; assay type: functional, organism-based
dengue virus type 1 [13] = test: Selectivity index, ratio of CC50 for cytotoxicity in African green monkey Vero E6 cells to IC50 for Antiviral activity against DENV1 infected in African green monkey Vero E6 cells; assay type: functional, Vero C1008
dengue virus type 2 [14] = test: Antiviral activity against DENV2 infected in African green monkey Vero E6 cells assessed as inhibition of virus induced cytopathic effect measured after 96 hrs by immunofluorescent staining based inverted microscopic analysis; assay type: functional, organism-based; conditions: Vero C1008, 96 h

SMILES: CN1C[C@H]2C[C@@H](C1)c1ccc([N+](=O)[O-])c(=O)n1C2
- IC50 (dengue virus type 1 [1]): 2400 nM
- IC50 (dengue virus type 2 [2]): 1130 nM
- Activity (dengue virus type 2 [3]): Active
- selectivity ratio [4]: > 500
- CC50 [5]: > 50000 nM
- inhibition at 10 µM (dengue virus type 2 [6]): 76.7%
- selectivity ratio [7]: > 64.9
- inhibition at 10 µM (dengue virus type 1 [8]): 61.2%
- Activity (dengue virus type 1 [9]): Active
- IC50 (dengue virus type 2 [10]): 837 nM
- IC50 (dengue virus type 2 [11]): 770 nM
- IC50 (dengue virus type 2 [12]): 1370 nM
- CC50 (A549): > 50000 nM
- IC50 (Human respirovirus 3): > 3000 nM
- IC50 (Hepatitis B virus): > 3000 nM
- IC50 (Influenza A virus): > 3000 nM
- Ratio CC50/IC50 (dengue virus type 1 [13]): >20.8

SMILES: CN1C[C@H]2C[C@@H](C1)c1ccc(NC/C=C/c3ccccc3)c(=O)n1C2
- Activity (dengue virus type 2 [3]): Active
- CC50 [5]: > 50000 nM
- inhibition at 10 µM (dengue virus type 2 [6]): 3.2%
- CC50 (A549): > 50000 nM

SMILES: O=c1ccc(Cl)c2n1C[C@@H]1C[C@H]2CN(C(=S)Nc2ccccc2)C1
- Activity (dengue virus type 2 [3]): Active
- CC50 [5]: > 50000 nM
- inhibition at 10 µM (dengue virus type 2 [6]): 11.2%
- CC50 (A549): > 50000 nM

SMILES: C=CCNC(=S)N1C[C@H]2C[C@@H](C1)c1ccc([N+](=O)[O-])c(=O)n1C2
- Activity (dengue virus type 2 [3]): Active
- CC50 [5]: > 50000 nM
- inhibition at 10 µM (dengue virus type 2 [6]): 48.9%
- CC50 (A549): > 50000 nM

SMILES: CCOC(=O)CNC(=S)Nc1ccc2n(c1=O)C[C@@H]1C[C@H]2CN(C)C1
- Activity (dengue virus type 2 [3]): Active
- CC50 [5]: > 50000 nM
- inhibition at 10 µM (dengue virus type 2 [6]): 60.9%
- CC50 (A549): > 50000 nM

SMILES: CC(C)NC(=S)Nc1ccc2n(c1=O)C[C@@H]1CC2CN(C)C1 (single isomer, unassigned)
- Activity (dengue virus type 2 [3]): Active
- CC50 [5]: > 50000 nM
- inhibition at 10 µM (dengue virus type 2 [6]): 61.4%
- CC50 (A549): > 50000 nM

SMILES: CN1C[C@H]2C[C@@H](C1)c1ccc(NCc3cn(C)c(=O)n(C)c3=O)c(=O)n1C2 (single isomer, unassigned)
- IC50 (dengue virus type 1 [1]): 1380 nM
- IC50 (dengue virus type 2 [2]): 1840 nM
- Activity (dengue virus type 2 [3]): Active
- selectivity ratio [4]: > 109
- CC50 [5]: > 50000 nM
- inhibition at 10 µM (dengue virus type 2 [6]): 79.2%
- selectivity ratio [7]: > 75.8
- inhibition at 10 µM (dengue virus type 1 [8]): 73.9%
- Activity (dengue virus type 1 [9]): Active
- IC50 (dengue virus type 2 [10]): 9300 nM
- IC50 (dengue virus type 2 [11]): 660 nM
- IC50 (dengue virus type 2 [12]): 237 nM
- CC50 (A549): > 50000 nM
- IC50 (Human respirovirus 3): > 3000 nM
- IC50 (Hepatitis B virus): > 3000 nM
- IC50 (dengue virus type 2 [14]): < 100 nM
- IC50 (Influenza A virus): > 3000 nM
- Ratio CC50/IC50 (dengue virus type 1 [13]): >36.2

SMILES: Cn1cc(CNc2ccc3n(c2=O)C[C@@H]2C[C@H]3CN(C(=O)Nc3ccccc3)C2)c(=O)n(C)c1=O
- IC50 (dengue virus type 1 [1]): 490 nM
- IC50 (dengue virus type 2 [2]): 844 nM
- Activity (dengue virus type 2 [3]): Active
- selectivity ratio [4]: > 500
- CC50 [5]: > 50000 nM
- inhibition at 10 µM (dengue virus type 2 [6]): 74%
- selectivity ratio [7]: > 106
- inhibition at 10 µM (dengue virus type 1 [8]): 57.7%
- Activity (dengue virus type 1 [9]): Active
- IC50 (dengue virus type 2 [10]): 6450 nM
- IC50 (dengue virus type 2 [11]): 470 nM
- IC50 (dengue virus type 2 [12]): < 100 nM
- CC50 (A549): > 50000 nM
- IC50 (Human respirovirus 3): > 3000 nM
- IC50 (Hepatitis B virus): > 3000 nM
- IC50 (dengue virus type 2 [14]): < 100 nM
- IC50 (Influenza A virus): > 3000 nM
- Ratio CC50/IC50 (dengue virus type 1 [13]): >102

SMILES: CN1C[C@H]2C[C@@H](C1)c1ccc(NCc3ccc(O)cc3)c(=O)n1C2
- IC50 (dengue virus type 1 [1]): 970 nM
- IC50 (dengue virus type 2 [2]): 471 nM
- Activity (dengue virus type 2 [3]): Active
- selectivity ratio [4]: > 21.7
- CC50 [5]: > 50000 nM
- inhibition at 10 µM (dengue virus type 2 [6]): 70.6%
- selectivity ratio [7]: > 64.1
- inhibition at 10 µM (dengue virus type 1 [8]): 64.8%
- Activity (dengue virus type 1 [9]): Active
- IC50 (dengue virus type 2 [10]): > 10000 nM
- IC50 (dengue virus type 2 [11]): 780 nM
- IC50 (dengue virus type 2 [12]): < 100 nM
- CC50 (A549): > 50000 nM
- IC50 (Human respirovirus 3): > 3000 nM
- IC50 (Hepatitis B virus): > 3000 nM
- IC50 (dengue virus type 2 [14]): 2300 nM
- IC50 (Influenza A virus): > 3000 nM
- Ratio CC50/IC50 (dengue virus type 1 [13]): >51.5

SMILES: C=CCN1C[C@H]2C[C@@H](C1)c1ccc(NCc3cn(C)c(=O)n(C)c3=O)c(=O)n1C2
- Activity (dengue virus type 2 [3]): Active
- CC50 [5]: > 50000 nM
- inhibition at 10 µM (dengue virus type 2 [6]): 43.3%
- CC50 (A549): > 50000 nM

SMILES: C=CCNC(=S)N1C[C@H]2C[C@@H](C1)c1cccc(=O)n1C2
- IC50 (dengue virus type 1 [1]): 140 nM
- IC50 (dengue virus type 2 [2]): < 100 nM
- Activity (dengue virus type 2 [3]): Active
- selectivity ratio [4]: > 500
- CC50 [5]: > 50000 nM
- inhibition at 10 µM (dengue virus type 2 [6]): 86.4%
- selectivity ratio [7]: > 500
- inhibition at 10 µM (dengue virus type 1 [8]): 81.2%
- Activity (dengue virus type 1 [9]): Active
- IC50 (dengue virus type 2 [10]): 315 nM
- IC50 (dengue virus type 2 [11]): < 100 nM
- IC50 (dengue virus type 2 [12]): 7510 nM
- CC50 (A549): > 50000 nM
- IC50 (Human respirovirus 3): > 3000 nM
- IC50 (Hepatitis B virus): > 3000 nM
- IC50 (dengue virus type 2 [14]): < 100 nM
- IC50 (Influenza A virus): > 3000 nM
- Ratio CC50/IC50 (dengue virus type 1 [13]): >357.1

SMILES: O=c1cccc2n1C[C@@H]1C[C@H]2CN(C(=S)Nc2ccccc2)C1
- Activity (dengue virus type 2 [3]): Active
- CC50 [5]: > 50000 nM
- inhibition at 10 µM (dengue virus type 2 [6]): 59.4%
- CC50 (A549): > 50000 nM

SMILES: Cn1cc(CNc2ccc3n(c2=O)C[C@@H]2C[C@H]3CN3CCCCC23)c(=O)n(C)c1=O (stereo partly specified)
- Activity (dengue virus type 2 [3]): Active
- CC50 [5]: > 50000 nM
- inhibition at 10 µM (dengue virus type 2 [6]): 53.3%
- CC50 (A549): > 50000 nM

SMILES: Cn1cc(CNc2ccc3n(c2=O)C[C@@H]2C[C@H]3CN(Cc3ccccc3)C2)c(=O)n(C)c1=O (single isomer, unassigned)
- Activity (dengue virus type 2 [3]): Active
- CC50 [5]: > 50000 nM
- inhibition at 10 µM (dengue virus type 2 [6]): 58.8%
- CC50 (A549): > 50000 nM

SMILES: COC(=O)CN1C[C@H]2C[C@@H](C1)c1ccc(NCc3cn(C)c(=O)n(C)c3=O)c(=O)n1C2
- Activity (dengue virus type 2 [3]): Active
- CC50 [5]: > 50000 nM
- inhibition at 10 µM (dengue virus type 2 [6]): 63.9%
- CC50 (A549): > 50000 nM

SMILES: CCOC(=O)CNC(=O)Nc1ccc2n(c1=O)C[C@@H]1C[C@H]2CN(C)C1 (single isomer, unassigned)
- Activity (dengue virus type 2 [3]): Active
- CC50 [5]: > 50000 nM
- inhibition at 10 µM (dengue virus type 2 [6]): 40.3%
- CC50 (A549): > 50000 nM

SMILES: CN1C[C@H]2C[C@@H](C1)c1ccc(NCc3ccccc3O)c(=O)n1C2
- Activity (dengue virus type 2 [3]): Active
- CC50 [5]: > 50000 nM
- inhibition at 10 µM (dengue virus type 2 [6]): 39%
- CC50 (A549): > 50000 nM

SMILES: CC(C)NC(=O)Nc1ccc2n(c1=O)C[C@@H]1C[C@H]2CN(C)C1 (single isomer, unassigned)
- Activity (dengue virus type 2 [3]): Active
- CC50 [5]: > 50000 nM
- inhibition at 10 µM (dengue virus type 2 [6]): 19.7%
- CC50 (A549): > 50000 nM
